This is an account of results in ChEMBL document CHEMBL1926581, “Cyclic ether-containing macrolactins, antimicrobial 24-membered isomeric macrolactones from a marine Bacillus sp” (2011).

Values after ≈ are worked out from the molar mass of the structure shown.

Holding throughout (assay type): functional
Assay [1] deals with Bacillus subtilis. The assay is described as follows: Antibacterial activity against Bacillus subtilis KCTC 1021 after 24 hrs by broth microdilution method. The settings on record: KCTC 1021, 24 h. For orientation: Broth dilution looks for growth in wells or tubes with falling amounts of substance.
Assay [2] deals with Escherichia coli. The experiment in a line: Antibacterial activity against Escherichia coli KCTC 1923 after 24 hrs by broth microdilution method. The settings on record: KCTC 1923, 24 h.
Assay [3] relates to Saccharomyces cerevisiae. The experiment in a line: Antifungal activity against Saccharomyces cerevisiae KCTC 7913 after 48 hrs by broth microdilution method. The settings on record: KCTC 7913, 48 h.

A word on the MIC: it is the lowest concentration found to suppress growth. As for `C[C@@H]1CCC/C=C/[C@@H]2O[C@H](C[C@@H](O)C/C=C\C=C\[C@@H](O)C/C=C/C=C\C(=O)O1)[C@H]2O`, the MIC in assay [1], in assay [2] and in assay [3] was 0.16 µM (≈ 0.067 µg/mL) in each case.

As to `C[C@@H]1CCC[C@@H]2O[C@H]2/C=C/[C@H](O)C[C@@H](O)C/C=C\C=C\[C@@H](O)C/C=C/C=C\C(=O)O1`, the values for the MIC in assay [1], in assay [2] and in assay [3] were 0.16 µM (≈ 0.067 µg/mL), 0.16 µM (≈ 0.067 µg/mL) and 0.02 µM (≈ 0.00837 µg/mL), respectively.

For `C[C@@H]1CCC/C=C/[C@@H]2O[C@@H](C/C=C\C=C\[C@@H](O)C/C=C/C=C\C(=O)O1)C[C@@H](O)[C@H]2O`, the MIC in assay [1], in assay [2] and in assay [3] was 0.16 µM (≈ 0.067 µg/mL) throughout.
